Data published in article PMC9274004, “Deciphering the Molecular Interaction Between the Adhesion G Protein-Coupled Receptor ADGRV1 and its PDZ-Containing Regulator PDZD7” (Frontiers in Molecular Biosciences, 2022).
Where no end group is shown, it is not given here.

Target: T1, PDZD7 P1P2 (81-313) (Mus musculus, UniProt E9Q9W7)
T1 construct: PDZ2ext (206-313), P1P2 (81-313); GST (followed by TEV site) (N, cleaved yes); made in house; host or cells: E. coli BL21 DE3
Experiment: Fluorescence titration of PDZ tandem P1P2
Assay type: binding, murine
Conditions: fluorescence titration (Trp, ex 295 nm, em 346-349 nm); P1P2 2 µM in Phosphate Buffer pH 6.6 (50 mM); error from quality of fit
Experimental: Fluorescence titrations were performed on a Jasco V-730 spectrometer using quartz cell 109.004F-QS (Hellma Analytics) with an optical path of 10 mm and with thick side to reduce the inner filter effect. PDZ1ext and P1P2 were prepared in Phosphate Buffer pH 6.6 (50 mM) at 6 and 2 µM respectively, while PDZ2ext was prepared in Tris HCl pH 7.5 (50 mM) at 5 µM. Variations in the quantum yield of fluorescence of tryptophans from the sample were monitored upon progressive addition of buffered ADGRV1pbm peptide. After peptide addition, the sample is homogenized by in-spectrometer magnet agitation for 30 s. The sample is left to rest for an additional 60 s before measurement. Excitation is set at 295 nm and fluorescence was measured at the maximum emission wavelength (346-349 nm) of the unbound form with a 5 nm bandwidth for both. Titration curves were fitted using the following formula: y = Fp∗p0+(Fx-Fp)∗0.5∗(R∗I0+(1-R)∗x + K-((R∗I0+(1-R)∗x + K)^2-4∗R∗(I0-x)∗x)^1/2), where p0 is the initial protein concentration, I0 the peptide stock concentration, R the p0/I0 ratio, x the volume of added peptide in µl, Fp the fluorescence of PDZ constructs, Fx the fluorescence of the complex, and K the Kd. […]
We monitored the interaction between PDZD7 constructs and a peptide (ADGRV1pbm) corresponding to the last 13 residues of ADGRV1, encompassing its PBM (sequence VELRRIPIADTHL-COOH; PBM underlined). […]

T1 sequence (E9Q9W7 81-313): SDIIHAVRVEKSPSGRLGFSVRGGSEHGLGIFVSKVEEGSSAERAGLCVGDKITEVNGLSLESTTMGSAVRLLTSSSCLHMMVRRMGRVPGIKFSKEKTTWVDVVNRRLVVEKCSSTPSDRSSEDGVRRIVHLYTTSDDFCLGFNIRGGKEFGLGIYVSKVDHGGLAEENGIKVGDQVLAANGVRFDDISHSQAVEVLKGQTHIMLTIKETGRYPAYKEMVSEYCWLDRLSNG

Sequence: VELRRIPIADTHL [ADGRV1pbm]
- Kd: 1.6 ± 0.3 µM
